Several values for one entry are separate records, joined by “and”; a condition that tells them apart may be missing. Equal entries are not always repeated.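 Cultured in 96-well plates, cells were exposed to test compound for 48 hours across five concentrations. The concentration for 50% growth inhibition is given as GI50. TGI denotes the concentration required for complete inhibition of growth.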
Experiments:
Test in all cases: NCI-60 cell line screen, 48 h
[1] = tested on: MCF7 breast
[2] = tested on: UACC-257 melanoma
[3] = tested on: DU-145 prostate
[4] = tested on: OVCAR-3 ovarian
[5] = tested on: NCI-H460 lung
[6] = tested on: OVCAR-8 ovarian
[7] = tested on: T-47D breast
[8] = tested on: CAKI-1 renal
[9] = tested on: UACC-62 melanoma
[10] = tested on: M14 melanoma

Compound	GI50 [1]	TGI [1]	GI50 [2]	TGI [2]	GI50 [3]	TGI [3]	GI50 [4]	TGI [4]	GI50 [5]	TGI [5]	GI50 [6]	TGI [6]	GI50 [7]	TGI [7]	GI50 [8]	TGI [8]	TGI [9]	TGI [10]	GI50 [9]	GI50 [10]
COc1ccc(-c2nc(N3CCOCC3)c3sc(CN(C)c4ncc(C(=O)NO)cn4)cc3n2)cn1	< 0.01 µM	0.366 µM	< 0.01 µM	0.0466 µM	< 0.01 µM	0.141 µM	< 0.01 µM	0.0282 µM	< 0.01 µM	10.9 µM	< 0.01 µM	0.222 µM	< 0.01 µM	0.0332 µM	0.0176 µM	0.0436 µM				
CN(C)C1=NC2=S(SC(Nc3ccccc3)=N2)S1 (stereo unspecified)				70.8 µM						> 100 µM		> 100 µM				60.7 µM	> 100 µM	> 100 µM		
COc1ccc(-c2nn(-c3cccc(NC(=O)c4cccc(C(F)(F)F)c4)c3)cc2-c2ccncc2)cc1Cl	1.81 µM	24.8 µM	6.67 µM	61.7 µM	4.36 µM	> 100 µM			2.95 µM	> 100 µM	3.34 µM	> 100 µM	2.56 µM	> 100 µM	2.57 µM	> 100 µM	24 µM	25.3 µM	2.27 µM	2.23 µM
Cc1cc(=O)oc2c(OS(C)(=O)=O)c(OS(C)(=O)=O)ccc12		> 100 µM		> 100 µM				> 100 µM		> 100 µM		> 100 µM				> 100 µM	> 100 µM	> 100 µM		
CCCc1nc(NC#N)nc(C(=O)NC23CC4CC(CC(C4)C2)C3)c1C				> 100 µM				> 100 µM		> 100 µM		> 100 µM				> 100 µM	> 100 µM	> 100 µM		
Nc1ccc(-c2nc3ccccc3o2)cc1S	12.1 µM	38.3 µM	23.1 µM	59.8 µM	19.9 µM	55.3 µM	15.8 µM	31 µM	13.2 µM	29.6 µM	20.3 µM	58 µM			20.5 µM	36.4 µM	26 µM	36.7 µM	13.2 µM	15.5 µM
COc1ccccc1C(N)c1ccccc1 (stereo unspecified)				> 100 µM				> 100 µM		> 100 µM		> 100 µM					> 100 µM	> 100 µM		
O=C(O)c1cccc2cccc(C(=O)O)c12.[Hg]			16.7 µM	30.8 µM			15.3 µM	30 µM	16.4 µM	31.7 µM	20.5 µM	46.2 µM			21.7 µM	53.8 µM	> 100 µM	27 µM	> 100 µM	14 µM
H-HIIKKIRTWYRKAWHVLGKV-NH2	2.05 µM	4.58 µM	8.48 µM	59.6 µM	4.26 µM	15.3 µM	10.4 µM	39.3 µM	3.34 µM	92.4 µM	4.74 µM	> 100 µM			3.32 µM	18.3 µM		22.8 µM		4.17 µM
NC(=O)Nc1c([N+](=O)[O-])cc(C(F)(F)F)cc1[N+](=O)[O-]				> 100 µM				82.5 µM		> 100 µM		> 100 µM				> 100 µM	> 100 µM	> 100 µM		
CCC1CC(C)=CCN1S(=O)(=O)c1ccc(C)cc1 (stereo unspecified)				> 100 µM				44.9 µM		91.7 µM		> 100 µM				> 100 µM	57.8 µM	57.5 µM		
COc1cc(Nc2nc3cc(C(F)(F)F)ccc3nc2-c2ccccc2)cc(OC)c1OC				> 100 µM				> 100 µM		> 100 µM		> 100 µM				0.0575 µM	> 100 µM	> 100 µM		
Cc1c(-c2nnc(-c3ccc(F)cc3)o2)nnn1-c1ccnc2c(C(F)(F)F)cccc12	20.9 µM	> 100 µM	> 100 µM	> 100 µM	30.4 µM	> 100 µM	28.7 µM	> 100 µM	30.4 µM	> 100 µM	41.8 µM	> 100 µM	20 µM	> 100 µM	29.5 µM	> 100 µM	> 100 µM		> 100 µM	
CSC1=Nc2c(c(C)c(C)n2COC(CO)CO)C2=NC(=O)CC(C)N12 (stereo unspecified)	> 100 µM	> 100 µM	> 100 µM	> 100 µM	> 100 µM	> 100 µM	> 100 µM	> 100 µM	> 100 µM	> 100 µM	> 100 µM	> 100 µM	> 100 µM	> 100 µM	> 100 µM	> 100 µM	> 100 µM		> 100 µM	
COC(=O)C1=C(c2ccc3c(c2)OCO3)OC(c2ccc3c(c2)OCO3)C1 (stereo unspecified)				> 100 µM				> 100 µM		> 100 µM		> 100 µM				> 100 µM	> 100 µM	> 100 µM		
CCOC(=O)N[C@@H]1C2CC(=O)C(O2)[C@@H]1OC (stereo partly specified)				> 100 µM				> 100 µM		> 100 µM		> 100 µM				> 100 µM	> 100 µM	> 100 µM		
NCCCNCCSSC/C=C\CSSCCNCCCN				> 100 µM and 76.8 µM				> 100 µM		> 100 µM		> 100 µM				> 100 µM	> 100 µM	> 100 µM		
CCOC(=O)NC(=O)c1cn(CCCOC(=O)NCCCCCCNC(=O)OCCCn2cc(C(=O)NC(=O)OCC)c(=O)[nH]c2=O)c(=O)[nH]c1=O				37 µM				42.4 µM		> 100 µM		> 100 µM				35 µM	38.8 µM	35.4 µM		
COc1ccc(-c2cc(-c3cc(C)ccc3O)[nH]c(=O)n2)cc1				> 100 µM				> 100 µM		> 100 µM		> 100 µM				> 100 µM	> 100 µM	> 100 µM		
CC1=NC(C(C)C)C(=O)O1 (stereo unspecified)				> 100 µM				> 100 µM		> 100 µM		> 100 µM				> 100 µM	> 100 µM	> 100 µM		
COC1OC(COS(=O)(=O)c2ccc(C)cc2)C(O)C(OS(=O)(=O)c2ccc(C)cc2)C1OS(=O)(=O)c1ccc(C)cc1 (stereo unspecified)				> 100 µM				> 100 µM		> 100 µM		> 100 µM				> 100 µM		> 100 µM		
COC(=O)C1=C(CS(=O)c2ccc([N+](=O)[O-])cc2[N+](=O)[O-])ON(C)C1c1ccccc1 (stereo unspecified)				> 100 µM				> 100 µM		> 100 µM		> 100 µM				> 60.8 µM	> 75.2 µM	> 100 µM		

From PubChem BioAssay (NCI)
